Experimental data from PubChem BioAssay AID284 (DTP/NCI, 2004).
Several values for one entry are separate records, joined by “and”; a condition that tells them apart may be missing. Identical values can stand only once. Inconclusive results and toxic doses are left out.

System: BDF1 mice, L1210/MTX-resistant leukemia ip, survival T/C
Test: NCI In Vivo Anticancer Drug Screen. Data for tumor model L1210 Leukemia resistant to Methotrexate; NSC 740 (intraperitoneal) in B6D2F1 (BDF1) mice
Conditions: endpoint: mean survival time, higher = longer survival
Protocol: The antitumor activity of compounds was measured in mice bearing transplantable tumors. Survival or tumor size were measured and the results are expressed as the measurement made in the treated group (T) divided by the measurement made in the vehicle treated control group (C). The tumor model used in this assay is L1210 Leukemia resistant to Methotrexate; NSC 740 (intraperitoneal) in B6D2F1 (BDF1) mice

In the case of `Clc1ncnc2nc[nH]c12`, the T/C (dose: 7.5 mg/kg/injection, schedule: Q01DX010 (ip), vehicle: saline) is reported as 90 % of control, the T/C (dose: 15.0 mg/kg/injection, schedule: Q01DX010 (ip), vehicle: saline) is reported as 90 % of control and 96 % of control and the T/C (dose: 30.0 mg/kg/injection, schedule: Q01DX010 (ip), vehicle: saline) is reported as 92 % of control and 100 % of control. The T/C (dose: 60.0 mg/kg/injection, schedule: Q01DX010 (ip), vehicle: saline) was 96 % of control.

With `O=c1[nH]cc(F)c(=O)[nH]1` the T/C (dose: 25.0 mg/kg/injection, schedule: Q01DX Z (ip), vehicle: saline) was 92 % of control and 101 % of control and the T/C (dose: 50.0 mg/kg/injection, schedule: Q01DX Z (ip), vehicle: saline) was 87 % of control and 93 % of control and 98 % of control.

`O=c1[nH]c(=O)n(C2CC(O)C(CO)O2)cc1F` (stereo not given) was tested, and the T/C (dose: 40.0 mg/kg/injection, schedule: Q01DX Z (ip), vehicle: other) was 118 % of control, the T/C (dose: 80.0 mg/kg/injection, schedule: Q01DX Z (ip), vehicle: other) was 98 % of control and the T/C (dose: 160.0 mg/kg/injection, schedule: Q01DX Z (ip), vehicle: other) was 102 % of control.

For `Oc1cc(CN(CCCl)CCCl)c(O)cc1CN(CCCl)CCCl`, the T/C (dose: 0.25 mg/kg/injection, schedule: Q01DX Z (ip), vehicle: carboxymethylcellulose (CMC)) was 96 % of control, the T/C (dose: 0.37 mg/kg/injection, schedule: Q01DX Z (ip), vehicle: carboxymethylcellulose (CMC)) was 110 % of control and the T/C (dose: 0.5 mg/kg/injection, schedule: Q01DX Z (ip), vehicle: carboxymethylcellulose (CMC)) was 88 % of control. For the same compound, the T/C (dose: 0.75 mg/kg/injection, schedule: Q01DX Z (ip), vehicle: carboxymethylcellulose (CMC)) was 97 % of control, the T/C (dose: 1.0 mg/kg/injection, schedule: Q01DX Z (ip), vehicle: carboxymethylcellulose (CMC)) was 86 % of control and the T/C (dose: 2.0 mg/kg/injection, schedule: Q01DX Z (ip), vehicle: carboxymethylcellulose (CMC)) was 88 % of control.

In the case of `Nc1nc(=S)c2ncn(C3OC(CO)C(O)C3O)c2[nH]1` (stereo not given), the T/C (dose: 0.22 mg/kg/injection, schedule: Q01DX Z (ip), vehicle: carboxymethylcellulose (CMC)) is reported as 88 % of control, the T/C (dose: 0.45 mg/kg/injection, schedule: Q01DX Z (ip), vehicle: carboxymethylcellulose (CMC)) is reported as 88 % of control and the T/C (dose: 1.8 mg/kg/injection, schedule: Q01DX Z (ip), vehicle: carboxymethylcellulose (CMC)) is reported as 102 % of control.

In the case of `OCC1OC(n2cnc3c(Cl)ncnc32)C(O)C1O` (stereo not given), the T/C (dose: 62.5 mg/kg/injection, schedule: Q01DX010 (ip), vehicle: saline) is reported as 87 % of control and 90 % of control, the T/C (dose: 125.0 mg/kg/injection, schedule: Q01DX010 (ip), vehicle: saline) is reported as 95 % of control and 98 % of control and the T/C (dose: 250.0 mg/kg/injection, schedule: Q01DX010 (ip), vehicle: saline) is reported as 95 % of control and 100 % of control. For the same compound, the T/C (dose: 500.0 mg/kg/injection, schedule: Q01DX010 (ip), vehicle: saline) was 98 % of control.

`C=CC(CN1CC1)OC(C)=O` (stereo not given) was tested, and the T/C (dose: 1.25 mg/kg/injection, schedule: Q01DX Z (ip), vehicle: saline) was 119 % of control, the T/C (dose: 2.0 mg/kg/injection, schedule: Q01DX010 (ip), vehicle: saline) was 123 % of control and the T/C (dose: 2.5 mg/kg/injection, schedule: Q01DX Z (ip), vehicle: saline) was 107 % of control. The T/C (dose: 5.0 mg/kg/injection, schedule: Q01DX Z (ip), vehicle: saline) was 102 % of control.

For `CC(=O)O[C@]1(C(C)=O)CC[C@H]2[C@@H]3C[C@H](C)C4=CC(=O)C=C[C@]4(C)[C@@]3(F)[C@@H](O)C[C@@]21C`, the T/C (dose: 0.62 mg/kg/injection, schedule: Q01DX Z (sc), vehicle: steriod suspending solution) was 96 % of control, the T/C (dose: 1.25 mg/kg/injection, schedule: Q01DX Z (sc), vehicle: steriod suspending solution) was 97 % of control and the T/C (dose: 2.5 mg/kg/injection, schedule: Q01DX Z (sc), vehicle: steriod suspending solution) was 100 % of control. The T/C (dose: 5.0 mg/kg/injection, schedule: Q01DX Z (sc), vehicle: steriod suspending solution) was 101 % of control, the T/C (dose: 12.5 mg/kg/injection, schedule: Q01DX010 (sc), vehicle: steriod suspending solution) was 101 % of control and the T/C (dose: 25.0 mg/kg/injection, schedule: Q01DX010 (sc), vehicle: steriod suspending solution) was 100 % of control. For the same compound, the T/C (dose: 37.5 mg/kg/injection, schedule: Q01DX Z (sc), vehicle: steriod suspending solution) was 150 % of control, the T/C (dose: 50.0 mg/kg/injection, schedule: Q01DX010 (sc), vehicle: steriod suspending solution) was 88 % of control and the T/C (dose: 100.0 mg/kg/injection, schedule: Q01DX010 (sc), vehicle: steriod suspending solution) was 88 % of control.
